According to patent publication US10172848B2, “Gap junction-enhancing agents for treatment of necrotizing enterocolitis and inflammatory bowel disease” (University of Pittsburgh—of the Commonwealth System of …, priority 2010, dated 2019):
Square brackets hold non-standard residues; d marks the D form. Peptide text beside a SMILES is read from it. dHyp = O=C(O)[C@H]1C[C@H](O)CN1

How the values were obtained:
[1] = qualitative statement, no test described; cited from earlier work
IEC-6 enterocytes = assay: enterocyte gap junction communication by confocal based dye transfer; type: cell-based; details: IEC-6 enterocytes treated with various concentrations of PMA for one hour; untreated cells = 100% dye transfer; FIG. 10A
Description: (§1) FIG. 10A-B. (A) IEC-6 enterocytes were treated with the concentrations of phorbol myristate acetate (“PMA”) indicated for one hour and then evaluated for the extent of enterocyte gap junction communication by confocal based dye transfer. The untreated cells represent the 100% dye transfer. *p<0.05 versus untreated cells. (B) IEC-6 cells were treated with the concentration of PMA indicated and assessed for their ability to migrate into a scraped wound over 20 hours. *p<0.05 vs. untreated cells. Representative of two separate experiments.
(§2) IEC-6 enterocytes were treated with various concentrations of phorbol myristate acetate (“PMA”) for one hour and then evaluated for the extent of enterocyte gap junction communication by confocal based dye transfer. […] Further, IEC-6 cells were treated with the concentration of PMA indicated and assessed for their ability to migrate into a scraped wound over 20 hours.

IEC-6 cells = assay: migration into a scraped wound; type: cell-based; details: migration into a scraped wound over 20 hours, increasing PMA concentration, FIG. 10B
Description: as §1, §2

## NCC(=O)N1C[C@H](NC(=O)c2ccccc2)C[C@H]1C(=O)O [GAP-134, (2S,4R)-1-(2-aminoacetyl)-4-benzamido-pyrrolidine-2-carboxylic acid]
[1]
  half-life: shorter half-life than ZP123

## CCCCCCCCCCCCCC(=O)O[C@@H]1[C@@H](C)[C@@]2(O)[C@@H](C=C(CO)C[C@]3(O)C(=O)C(C)=C[C@@H]23)[C@@H]2C(C)(C)[C@]12OC(C)=O [PMA, phorbol myristate acetate]
IEC-6 enterocytes
  extent of gap junction communication (dye transfer): as concentrations of PMA increased, so did the extent of gap junction communication
IEC-6 cells
  speed (rate) of enterocyte migration: the speed (rate) of enterocyte migration also increased

## CC(=O)N[C@H](Cc1ccc(O)cc1)C(=O)N1CCC[C@@H]1C(=O)N1C[C@@H](O)C[C@@H]1C(=O)NCC(=O)N[C@H](C)C(=O)NCC(N)=O [Rotigaptide, (2R, 4S)-1-[(2R)-1-[(2R)-2-acetamido-3-(4-hydroxyphenyl)propanoyl]pyrrolidine-2-carbonyl]-N-[2-[[(2R)-1-[(2-amino-2-oxoethyl)amino]-1-oxopropan-2-yl]amino]-2-oxoethyl]-4-hydroxypyrrolidine-2-carboxamide] (Ac-[dY][dP][dHyp]G[dA]G-NH2)
[1]
  half-life: long half-life
  stability: stable
